Holding throughout (type): cell-based
In test [1] the target is T1, GLP-1 receptor (Homo sapiens, UniProt P43220). The test can be described thus: HitHunter cAMP assay, GLP-1 receptor. The note with it: for Emax: read-out: Emax GLP-1R. In general terms: Changes in cAMP serve as a functional read-out for many G protein-coupled receptors.
Test [2] addresses T2, GIP receptor (Homo sapiens, UniProt P48546).
T2 sequence (P48546 22-466): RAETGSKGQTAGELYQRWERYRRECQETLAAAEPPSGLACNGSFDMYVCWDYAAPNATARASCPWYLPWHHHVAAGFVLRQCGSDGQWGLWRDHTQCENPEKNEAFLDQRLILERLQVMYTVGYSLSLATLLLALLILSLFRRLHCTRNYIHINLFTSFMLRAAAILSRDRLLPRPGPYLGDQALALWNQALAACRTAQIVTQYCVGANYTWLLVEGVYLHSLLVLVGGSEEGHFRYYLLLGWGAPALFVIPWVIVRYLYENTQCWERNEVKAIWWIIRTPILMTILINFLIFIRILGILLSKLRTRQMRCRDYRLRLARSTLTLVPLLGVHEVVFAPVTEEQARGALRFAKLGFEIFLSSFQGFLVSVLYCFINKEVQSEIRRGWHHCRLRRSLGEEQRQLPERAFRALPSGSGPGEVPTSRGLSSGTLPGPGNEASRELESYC
The test can be described thus: HitHunter cAMP assay, GIP receptor. The settings on record: for Emax: read-out: Emax GIP-1R.

Test [3] deals with T2, GIP receptor. The test can be described thus: PathHunter β-arrestin assay, GIP receptor. The arrangement: host or cells: PathHunter CHO-K1 GIPR β-Arrestin Cell Line.
The target of test [4] is T1, GLP-1 receptor. Kind of test: PathHunter β-arrestin assay, GLP-1 receptor. Also noted: host or cells: PathHunter CHO-K1 GLP1R β-Arrestin Cell Line.
Experimental: β-arrestin-2 recruitment for GLP-1 receptor or GIP receptor was measured using the DiscoverX PathHunter Detection Kit and PathHunter® CHO-K1 GLPIR β-Arrestin Cell Line or PathHunter® CHO-K1 GIPR β-Arrestin Cell Line, respectively). Briefly, cells were grown in Ham's F12 Nutrient Mix with 10% FBS and lifted with Cell dissociation buffer, Enzyme free, PBS based (ThermoFisher). Harvested cells were pelleted and resuspended in Assay Complete Cell Plating Reagent 2 and 5000 cells per well were plated in tissue culture treated 384-well small volume white assay plates. Plates were then incubated at 37° C. and 5% CO2 overnight. The media was then replaced with fresh Assay Complete Cell Plating Reagent 2. Cells were then treated with 10 nl compound in DMSO using an ECHO 550 acoustic dispenser (Labcyte) in a 20-point dose response format in duplicate for 90 min at 37° C. The assay was then completed according to the manufacturer's instructions. Luminescence was measured using a Perkin Elmer Envision plate reader. Raw data was normalized to the maximum signal from GLP-1 or GIP (high) and DMSO (low). Dose response curves were analyzed using GraphPad Prism 9.0.
Where [5] appears, read: CHO cells stably expressing human GLP-1 receptor, cAMP accumulation, 30 min, read-out: EC50 GLP-1R.
[6] abbreviates: CHO cells, cAMP, normalized to maximum signal from GLP-1 (high) and DMSO (low).
Where [7] appears, read: CHO cells stably expressing GIP receptor, cAMP accumulation, 30 min, read-out: EC50 GIP-1R.
Setting [8] is: CHO cells, cAMP, normalized to maximum signal from GIP (high) and DMSO (low).
[9] abbreviates: β-arrestin-2 recruitment, PathHunter CHO-K1 GIPR β-Arrestin Cell Line, 90 min at 37° C., normalized to GIP, read-out: GIPR β Arrestin EC50.
Setting [10] is: β-arrestin-2 recruitment, PathHunter CHO-K1 GLP1R β-Arrestin Cell Line, 90 min at 37° C., normalized to GLP-1, read-out: GLP-1R β Arrestin EC50.

pEC50: −log10 of the molar value. Like-named read-outs stand apart in the source and are kept apart here. *1 amine or outer side, *2 acyl side, *3 side chain or, on linkers, in order; H or OH if unused. Where a SMILES comes first, the peptide text is derived from it. Side-chain parts run from the residue outwards. [ ]: non-standard residue; d: D form. The star is where a group is joined. Isobutyryl(2-(3-CN-5-F-Ph)) = CC(C)(C(=O)*)c1cc(F)cc(C#N)c1; β2hLeu(2S) = CC(C)C[C@@H](CN[*:1])C(=O)[*:2]; C20 diacid = O=C(O)CCCCCCCCCCCCCCCCCCC(=O)*; X75 = C[C@@](Cc1nn[nH]n1)(N[*:1])C(=O)[*:2]; NH(3,5-Cl2-phenyl) = Clc1cc(Cl)cc(N*)c1; γGlu = O=C(O)[C@H](CCC(=O)[*:2])N[*:1]; X23 = CC(C)(C(=O)*)c1ccncc1; AEEA = NCCOCCOCC(=O)O; Aib = CC(C)(N)C(=O)O; CO = O=C([*:1])[*:2]; X63 = Fc1ccc(N*)cc1F; GABA = NCCCC(=O)O; βAla = NCCC(=O)O A value given as a limit tells only on which side of the number the result lay.

For five molecules, EC50 and Emax results are on record in patent US12281149B2, “Modulators of G-protein coupled receptors” (priority 2021, dated 2025).

The term pEC50 denotes the negative decadic logarithm of the EC50, by convention in mol/L. One may read the Emax as the greatest response seen or fitted, relative to the assay's reference.

T1 sequence (P43220 24-463): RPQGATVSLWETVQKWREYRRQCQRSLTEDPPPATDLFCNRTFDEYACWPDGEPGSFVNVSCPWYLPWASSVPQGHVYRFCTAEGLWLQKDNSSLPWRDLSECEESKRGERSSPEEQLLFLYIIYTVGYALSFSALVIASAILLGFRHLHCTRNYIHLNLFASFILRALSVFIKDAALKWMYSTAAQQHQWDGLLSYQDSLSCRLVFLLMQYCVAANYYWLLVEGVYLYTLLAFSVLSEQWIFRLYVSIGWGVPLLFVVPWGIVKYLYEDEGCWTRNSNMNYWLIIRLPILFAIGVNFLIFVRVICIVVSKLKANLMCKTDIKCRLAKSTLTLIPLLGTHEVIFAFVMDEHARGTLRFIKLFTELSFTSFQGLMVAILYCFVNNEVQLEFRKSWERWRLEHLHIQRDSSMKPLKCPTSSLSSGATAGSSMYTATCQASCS

As to `CC[C@H](C)[C@H](NC(=O)[C@H](CC(C)C)NC(=O)[C@H](Cc1c[nH]c2ccccc12)NC(=O)[C@H](CCC(N)=O)NC(=O)[C@@H](NC(=O)[C@H](Cc1ccccc1)NC(=O)[C@H](C)NC(=O)[C@H](CCCCNC(=O)COCCOCCNC(=O)COCCOCCNC(=O)CC[C@H](NC(=O)CCCCCCCCCCCCCCCCCCC(=O)O)C(=O)O)NC(=O)[C@H](CCC(N)=O)NC(=O)[C@H](C)NC(=O)[C@@H](NC(=O)[C@H](CCCCN)NC(=O)[C@H](CC(=O)O)NC(=O)[C@H](CC(C)C)NC(=O)C(C)(C)NC(=O)[C@@H](NC(=O)[C@H](CO)NC(=O)[C@H](Cc1ccc(O)cc1)NC(=O)[C@H](CC(=O)O)NC(=O)[C@H](CO)NC(=O)[C@@H](NC(=O)[C@H](Cc1ccccc1)NC(=O)[C@@H](NC(=O)CNC(=O)[C@H](CCC(=O)O)NC(=O)CCCNC(=O)CNC(=O)Nc1cc(Cl)cc(Cl)c1)[C@@H](C)O)[C@@H](C)O)[C@@H](C)CC)[C@@H](C)CC)C(C)C)C(=O)N[C@@H](C)C(=O)NCC(=O)NCC(=O)N1CCC[C@H]1C(=O)N[C@@H](CO)C(=O)N[C@@H](CO)C(=O)NCC(=O)N[C@@H](C)C(=O)N1CCC[C@H]1C(=O)N1CCC[C@H]1C(=O)N1CCC[C@H]1C(=O)N[C@@H](CO)C(N)=O` [Compound 266] ({NH(3,5-Cl2-phenyl)-CO}-G[GABA]EGTFTSDYSI[Aib]LDKIAQK([AEEA-AEEA-γGlu-C20 diacid])AFVQWLIAGGPSSGAPPPS-NH2), the negative-log EC50 (pEC50) on GLP-1 receptor [1] is 8.00 to 9.00; on GIP receptor [2], 8.00 to 9.00; at GIP receptor [3], over 6.00; on GLP-1 receptor [4], under 6.00. The Emax on GLP-1 receptor [1] (CHO) and on GIP receptor [2] (CHO) was 105% in each case.
As for `CC[C@H](C)[C@H](NC(=O)[C@H](CC(C)C)NC(=O)[C@H](Cc1c[nH]c2ccccc12)NC(=O)[C@H](CCC(N)=O)NC(=O)[C@@H](NC(=O)[C@H](Cc1ccccc1)NC(=O)[C@H](C)NC(=O)[C@H](CCCCNC(=O)COCCOCCNC(=O)COCCOCCNC(=O)CC[C@H](NC(=O)CCCCCCCCCCCCCCCCCCC(=O)O)C(=O)O)NC(=O)[C@H](CCC(N)=O)NC(=O)[C@H](C)NC(=O)[C@@H](NC(=O)[C@H](CCCCN)NC(=O)[C@H](CC(=O)O)NC(=O)[C@H](CC(C)C)NC(=O)C(C)(C)NC(=O)[C@@H](NC(=O)[C@H](CO)NC(=O)[C@H](Cc1ccc(O)cc1)NC(=O)[C@H](CC(=O)O)NC(=O)[C@H](CO)NC(=O)[C@@H](NC(=O)[C@H](Cc1ccccc1)NC(=O)[C@@H](NC(=O)CNC(=O)[C@H](CCC(=O)O)NC(=O)CCNC(=O)C(C)(C)c1ccncc1)[C@@H](C)O)[C@@H](C)O)[C@@H](C)CC)[C@@H](C)CC)C(C)C)C(=O)N[C@@H](C)C(=O)NCC(=O)NCC(=O)N1CCC[C@H]1C(=O)N[C@@H](CO)C(=O)N[C@@H](CO)C(=O)NCC(=O)N[C@@H](C)C(=O)N1CCC[C@H]1C(=O)N1CCC[C@H]1C(=O)N1CCC[C@H]1C(=O)N[C@@H](CO)C(N)=O` [Compound 238] ({X23-βAla}-EGTFTSDYSI[Aib]LDKIAQK([AEEA-AEEA-γGlu-C20 diacid])AFVQWLIAGGPSSGAPPPS-NH2), the negative logarithm of the EC50 (pEC50) on GLP-1 receptor [1] (setting [5]) was 9.00 to 10.00; at GIP receptor [2] (setting [7]), 7.00 to 8.00; at GIP receptor [3] (setting [9]) it was under 6.00; at GLP-1 receptor [4] (setting [10]), under 6.00. The maximal response (Emax) was 91% at GLP-1 receptor [1] (setting [6]) and 100% on GIP receptor [2] (setting [8]).
In the case of `CC[C@H](C)[C@H](NC(=O)[C@H](CC(C)C)NC(=O)[C@H](Cc1c[nH]c2ccccc12)NC(=O)[C@H](CCC(N)=O)NC(=O)[C@@H](NC(=O)[C@H](Cc1ccccc1)NC(=O)[C@H](C)NC(=O)[C@H](CCCCNC(=O)COCCOCCNC(=O)COCCOCCNC(=O)CC[C@H](NC(=O)CCCCCCCCCCCCCCCCCCC(=O)O)C(=O)O)NC(=O)[C@H](CCC(N)=O)NC(=O)[C@H](C)NC(=O)[C@@H](NC(=O)[C@H](CCCCN)NC(=O)[C@H](CC(=O)O)NC(=O)[C@H](CC(C)C)NC(=O)C(C)(C)NC(=O)[C@@H](NC(=O)[C@H](CO)NC(=O)[C@H](Cc1ccc(O)cc1)NC(=O)[C@H](CC(=O)O)NC(=O)[C@H](CO)NC(=O)[C@@H](NC(=O)[C@H](Cc1ccccc1)NC(=O)[C@@H](NC(=O)CNC(=O)[C@H](CCC(=O)O)NC(=O)[C@H](CNC(=O)C(C)(C)c1cc(F)cc(C#N)c1)CC(C)C)[C@@H](C)O)[C@@H](C)O)[C@@H](C)CC)[C@@H](C)CC)C(C)C)C(=O)N[C@@H](C)C(=O)NCC(=O)NCC(=O)N1CCC[C@H]1C(=O)N[C@@H](CO)C(=O)N[C@@H](CO)C(=O)NCC(=O)N[C@@H](C)C(=O)N1CCC[C@H]1C(=O)N1CCC[C@H]1C(=O)N1CCC[C@H]1C(=O)N[C@@H](CO)C(N)=O` [Compound 193] ({Isobutyryl(2-(3-CN-5-F-Ph))}-[β2hLeu(2S)]EGTFTSDYSI[Aib]LDKIAQK([AEEA-AEEA-γGlu-C20 diacid])AFVQWLIAGGPSSGAPPPS-NH2), the pEC50 on GLP-1 receptor [1] (setting [5]) is 7.00 to 8.00; on GIP receptor [2] (setting [7]), 6.00 to 7.00; at GIP receptor [3] (setting [9]), under 6.00; on GLP-1 receptor [4] (setting [10]), under 6.00. Also, the maximal effect (Emax) at GLP-1 receptor [1] (setting [6]) is 77%; on GIP receptor [2] (setting [8]), 70%.
In the case of `CC[C@H](C)[C@H](NC(=O)[C@H](CC(C)C)NC(=O)[C@H](Cc1c[nH]c2ccccc12)NC(=O)[C@H](CCC(N)=O)NC(=O)[C@@H](NC(=O)[C@H](Cc1ccccc1)NC(=O)[C@H](C)NC(=O)[C@H](CCCCNC(=O)COCCOCCNC(=O)COCCOCCNC(=O)CC[C@H](NC(=O)CCCCCCCCCCCCCCCCCCC(=O)O)C(=O)O)NC(=O)[C@H](CCC(N)=O)NC(=O)[C@H](C)NC(=O)[C@@H](NC(=O)[C@H](CCCCN)NC(=O)[C@H](CC(=O)O)NC(=O)[C@H](CC(C)C)NC(=O)C(C)(C)NC(=O)[C@@H](NC(=O)[C@H](CO)NC(=O)[C@H](Cc1ccc(O)cc1)NC(=O)[C@H](CC(=O)O)NC(=O)[C@H](CO)NC(=O)[C@@H](NC(=O)[C@H](Cc1ccccc1)NC(=O)[C@@H](NC(=O)CNC(=O)[C@H](CCC(=O)O)NC(=O)CCCNC(=O)CNC(=O)Nc1ccc(F)c(F)c1)[C@@H](C)O)[C@@H](C)O)[C@@H](C)CC)[C@@H](C)CC)C(C)C)C(=O)N[C@@H](C)C(=O)NCC(=O)NCC(=O)N1CCC[C@H]1C(=O)N[C@@H](CO)C(=O)N[C@@H](CO)C(=O)NCC(=O)N[C@@H](C)C(=O)N1CCC[C@H]1C(=O)N1CCC[C@H]1C(=O)N1CCC[C@H]1C(=O)N[C@@H](CO)C(N)=O` [Compound 264] ({X63-CO}-G[GABA]EGTFTSDYSI[Aib]LDKIAQK([AEEA-AEEA-γGlu-C20 diacid])AFVQWLIAGGPSSGAPPPS-NH2), the pEC50 was 8.00 to 9.00 at GLP-1 receptor [1] (setting [5]), 8.00 to 9.00 at GIP receptor [2] (setting [7]), over 6.00 on GIP receptor [3] (setting [9]) and under 6.00 on GLP-1 receptor [4] (setting [10]). Moreover, the Emax was 97% on GLP-1 receptor [1] (setting [6]) and 106% on GIP receptor [2] (setting [8]).
Regarding `CC[C@H](C)[C@H](NC(=O)[C@H](CC(C)C)NC(=O)[C@H](Cc1c[nH]c2ccccc12)NC(=O)[C@H](CCC(N)=O)NC(=O)[C@@H](NC(=O)[C@H](Cc1ccccc1)NC(=O)[C@H](C)NC(=O)[C@H](CCCCNC(=O)COCCOCCNC(=O)COCCOCCNC(=O)CC[C@H](NC(=O)CCCCCCCCCCCCCCCCCCC(=O)O)C(=O)O)NC(=O)[C@H](CCC(N)=O)NC(=O)[C@H](C)NC(=O)[C@@H](NC(=O)[C@H](CCCCN)NC(=O)[C@H](CC(=O)O)NC(=O)[C@H](CC(C)C)NC(=O)C(C)(C)NC(=O)[C@@H](NC(=O)[C@H](CO)NC(=O)[C@H](Cc1ccc(O)cc1)NC(=O)[C@H](CC(=O)O)NC(=O)[C@H](CO)NC(=O)[C@@H](NC(=O)[C@H](Cc1ccccc1)NC(=O)[C@@H](NC(=O)CNC(=O)[C@](C)(Cc1nn[nH]n1)NC(=O)CCNC(=O)C(C)(C)c1cc(F)cc(C#N)c1)[C@@H](C)O)[C@@H](C)O)[C@@H](C)CC)[C@@H](C)CC)C(C)C)C(=O)N[C@@H](C)C(=O)NCC(=O)NCC(=O)N1CCC[C@H]1C(=O)N[C@@H](CO)C(=O)N[C@@H](CO)C(=O)NCC(=O)N[C@@H](C)C(=O)N1CCC[C@H]1C(=O)N1CCC[C@H]1C(=O)N1CCC[C@H]1C(=O)N[C@@H](CO)C(N)=O` [Compound 126] ({Isobutyryl(2-(3-CN-5-F-Ph))-βAla}-[X75]GTFTSDYSI[Aib]LDKIAQK([AEEA-AEEA-γGlu-C20 diacid])AFVQWLIAGGPSSGAPPPS-NH2), the pEC50 was 6.00 to 7.00 on GLP-1 receptor [1] (setting [5]), 6.00 to 7.00 on GIP receptor [2] (setting [7]), under 6.00 on GIP receptor [3] (setting [9]) and under 6.00 on GLP-1 receptor [4] (setting [10]). Further, the Emax turned out to be 59% on GLP-1 receptor [1] (setting [6]) and 97% at GIP receptor [2] (setting [8]).
